Tests used:
full length MALT1 enzyme = biological target: T1, full length MALT1 enzyme (Homo sapiens, UniProt Q9UDY8); experiment: MALT1 biochemical assay (fluorescence based, Ac-Leu-Arg-Ser-Arg-AMC cleavage); details: full length MALT1 protein, 2 h pre-incubation at RT, tetrapeptide substrate Ac-Leu-Arg-Ser-Arg-AMC, read-out: Malt 1 inhibition IC50
T1 construct: a fluorescence based assay with full length MALT1 enzyme
T1 sequence (Q9UDY8 1-824): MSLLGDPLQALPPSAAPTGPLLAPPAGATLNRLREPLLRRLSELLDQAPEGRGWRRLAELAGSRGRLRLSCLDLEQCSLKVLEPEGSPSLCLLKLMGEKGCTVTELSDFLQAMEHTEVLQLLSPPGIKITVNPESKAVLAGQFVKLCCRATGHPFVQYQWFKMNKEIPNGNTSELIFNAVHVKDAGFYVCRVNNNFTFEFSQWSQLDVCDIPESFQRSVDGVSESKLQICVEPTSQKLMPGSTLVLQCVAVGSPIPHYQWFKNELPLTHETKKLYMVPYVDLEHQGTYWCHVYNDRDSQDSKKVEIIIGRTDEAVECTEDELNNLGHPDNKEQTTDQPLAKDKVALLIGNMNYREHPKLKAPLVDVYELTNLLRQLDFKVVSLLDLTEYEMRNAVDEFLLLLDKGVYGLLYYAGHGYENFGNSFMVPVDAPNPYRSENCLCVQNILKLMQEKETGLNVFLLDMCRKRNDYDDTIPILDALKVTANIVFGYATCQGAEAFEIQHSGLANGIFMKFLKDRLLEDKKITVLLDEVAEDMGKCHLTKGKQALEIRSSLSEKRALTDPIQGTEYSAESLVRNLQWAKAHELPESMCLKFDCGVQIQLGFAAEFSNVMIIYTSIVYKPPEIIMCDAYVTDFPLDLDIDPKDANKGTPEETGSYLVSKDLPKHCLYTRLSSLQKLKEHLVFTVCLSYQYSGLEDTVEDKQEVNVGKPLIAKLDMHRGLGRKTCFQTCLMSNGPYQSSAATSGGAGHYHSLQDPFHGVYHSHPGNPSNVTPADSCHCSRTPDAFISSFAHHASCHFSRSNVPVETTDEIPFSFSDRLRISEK
Protocol: The biochemical potency of the MALT1 inhibitors was tested by using a fluorescence based assay with full length MALT1 enzyme. The assay principle makes use of the preferential cleavage by MALT1 after the Arginine residue. Thus, the substrate used is a tetrapeptide (Ac-Leu-Arg-Ser-Arg-AMC; Catalogue # SMAMC013, SM Biochemicals) which is cleaved by active MALT1 releasing the AMC which is fluorescent. Upon addition of the MALT1 protease inhibitors, the proteolytic activity (and accordingly AMC fluorescence) is reduced in a dose dependent manner. The kinetic characterization of the enzymatic reaction was measured by determining the Michaelis constant, Km, of the reaction (approximately 130=A/I). The assay buffer consisted of 50 mM MES, 150 mM NaCl, 0.1% w/v CHAPS, 1 M Ammonium citrate and 10 mM DTT (pH=7). The assay was established for the 384-well plate format using black microtiter square well plates (Optiplate 384-F, Perkin Elmer). The test compounds were dissolved in 100% DMSO at a stock concentration of 10 mM. Serial dilutions were made first in 100% DMSO. The final concentration of DMSO was 0.5% by wt.
For determining the extent of inhibition of MALT1 protease activity by MALT1 inhibitors, 10⇒| of the test compound solutions were pre-incubated with 10⇒| of MALT1 full length protein (100-300 ng protein/well) for 2 h at RT. This was followed by 10⇒| of substrate addition at a final concentration of 100⇒M for an additional 4-12 h. The increase in assay signal was linear over this period of time and proportional with increase in the enzyme content. The final concentrations of the test compounds typically ranged from 10000 nM to 0.03 nM in an alternate 3.16 and 3 serial dilutions. The positive control for the reaction contained enzyme and DMSO (without any test compound) and was considered to have 100% enzyme activity (0% inhibition) and the negative control containing only buffer and DMSO (without any enzyme) was considered to have no enzymatic activity (100% inhibition). The fluorescence was recorded in a Spectra Max plate reader, Molecular Devices, with a fluorescence excitation at 360 nm and emission recording at 460 nm. The fluorescence units were transformed to percentage inhibitions by using the positive and negative controls as references as per the following formula.
[formula] Positive control=Reaction containing enzyme+substrate+DMSO
Negative control=Reaction containing substrate+DMSO but no enzyme
The IC50 values of individual compounds were calculated with Non Linear Regression Analysis using Graph Pad Prism (Graph Pad software, Inc, USA).

[1] = system: NF-kB transcriptional activity in HEK-293-NF-kB-Luc cell line overexpressing MALT1; experiment: NF-kB reporter assay (luciferase, MALT1 stably overexpressed); assay type: cell-based; details: Homo sapiens, 24 h, HEK-293-NF-kB-Luc cells stably overexpressing MALT1, 24 h treatment, Bright Glo luminescence; read-out: NF-kB inhibition IC50
In short: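 Inhibition of NF-κB activity was expressed relative to 0.1% DMSO wells, from luminescence after 10 min Bright Glo at ambient temperature. Compounds had been applied for 24 h to adhered MALT1-overexpressing HEK-293 NF-κB luciferase reporter cells.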

SMILES | IC50 (full length MALT1 enzyme) | IC50 [1]
COC(C)c1c(NC(=O)Nc2cnc(-n3cccn3)c(C(F)(F)F)c2)cnc2sc(C)nc12 (single isomer, unassigned) [Compound 213b, (S) or (R)-1-(6-(1H-Pyrazol-1-yl)-5-(trifluoromethyl)pyridin-3-yl)-3-(7-(1-methoxyethyl)-2-methylthiazolo[5,4-b]pyridin-6-yl)urea] | 1 to 50 nM | 1 to 100 nM
CCc1nc2c(C(C)OC)c(NC(=O)Nc3ccc(-n4nccn4)c(Cl)c3)cnc2s1 (single isomer, unassigned) [Compound 233b, 1-(3-Chloro-4-(2H-1,2,3-triazol-2-yl)phenyl)-3-(2-ethyl-7-(1-methoxyethyl)thiazolo[5,4-b]pyridin-6-yl)urea] | 1 to 50 nM | 101 to 500 nM
COC(C)c1c(NC(=O)Nc2cnc(-n3cnnn3)c(C(F)(F)F)c2)cnc2sc(C)nc12 (single isomer, unassigned) [Compound 239, (S or R)-1-(6-(1H-Tetrazol-1-yl)-5-(trifluoromethyl)pyridin-3-yl)-3-(7-(1-methoxyethyl)-2-methylthiazolo[5,4-b]pyridin-6-yl)urea] | 1 to 50 nM | 1 to 100 nM
COC(CC1CC1)c1c(NC(=O)Nc2cnc(-n3nccn3)c(C(F)(F)F)c2)cnc2sc(C)nc12 (single isomer, unassigned) [Compound 240b, 1-(6-(2H-1,2,3-Triazol-2-yl)-5-(trifluoromethyl)pyridin-3-yl)-3-(7-(2-cyclopropyl-1-methoxyethyl)-2-methylthiazolo[5,4-b]pyridin-6-yl)urea] | 1 to 50 nM | 1 to 100 nM
CCOc1ncc(NC(=O)Nc2cnc3sc(C)nc3c2C2CC2)cc1Cl [Compound 4, 1-(5-Chloro-6-ethoxypyridin-3-yl)-3-(7-cyclopropyl-2-methylthiazolo[5,4-b]pyridin-6-yl)urea] | 1 to 50 nM | 501 to 1500 nM
Cc1nc2c(C3CC3)c(NC(=O)Nc3cc(C(F)(F)F)cn(C)c3=O)cnc2s1 [Compound 5, 1-(7-Cyclopropyl-2-methylthiazolo[5,4-b]pyridin-6-yl)-3-(1-methyl-2-oxo-5-(trifluoromethyl)-1,2-dihydropyridin-3-yl)urea] | 101 to 500 nM | 101 to 500 nM
Cc1nc2c(C3CC3)c(NC(=O)Nc3cncc(C(F)(F)F)c3)cnc2s1 [Compound 7, 1-(7-Cyclopropyl-2-methylthiazolo[5,4-b]pyridin-6-yl)-3-(5-(trifluoromethyl)pyridin-3-yl)urea] | 101 to 500 nM | 101 to 500 nM
COc1cc(F)ccc1-c1c(NC(=O)Nc2cnc(OC)c(Cl)c2)cnc2sc(C)nc12 [Compound 15, 1-(5-Chloro-6-methoxypyridin-3-yl)-3-(7-(4-fluoro-2-methoxyphenyl)-2-methylthiazolo[5,4-b]pyridin-6-yl)urea] | 1 to 50 nM | 501 to 1500 nM
Cc1nc2c(C3CC3)c(NC(=O)Nc3cnc(N4CCCS4(=O)=O)c(C(F)(F)F)c3)cnc2s1 [Compound 23, 1-(7-Cyclopropyl-2-methylthiazolo[5,4-b]pyridin-6-yl)-3-(6-(1,1-dioxidoisothiazolidin-2-yl)-5-(trifluoromethyl)pyridin-3-yl)urea] | 51 to 100 nM | 101 to 500 nM
CCc1c(NC(=O)Nc2ccc(OC)c(Cl)c2)cnc2sc(C)nc12 [Compound 25, 1-(3-Chloro-4-methoxyphenyl)-3-(7-ethyl-2-methylthiazolo[5,4-b]pyridin-6-yl)urea] | 1 to 50 nM | 501 to 1500 nM
COC1CCN(c2c(NC(=O)Nc3cnc(-n4nccn4)c(Cl)c3)cnc3sc(C)nc23)CC1 [Compound 29, 1-(5-Chloro-6-(2H-1,2,3-triazol-2-yl)pyridin-3-yl)-3-(7-(4-methoxypiperidin-1-yl)-2-methylthiazolo[5,4-b]pyridin-6-yl)urea] | 51 to 100 nM | 101 to 500 nM
CCc1nc2c(C3CC3)c(NC(=O)Nc3cnc(-n4nccn4)c(Cl)c3)cnc2s1 [Compound 31, 1-(5-Chloro-6-(2H-1,2,3-triazol-2-yl)pyridin-3-yl)-3-(7-cyclopropyl-2-ethylthiazolo[5,4-b]pyridin-6-yl)urea] | 1 to 50 nM | 101 to 500 nM
Cc1nc2c(N3CCC(C)CC3)c(NC(=O)Nc3cnc(-n4nccn4)c(Cl)c3)cnc2s1 [Compound 37, 1-(5-Chloro-6-(2H-1,2,3-triazol-2-yl)pyridin-3-yl)-3-(2-methyl-7-(4-methylpiperidin-1-yl)thiazolo[5,4-b]pyridin-6-yl)urea] | 51 to 100 nM | 101 to 500 nM
Cc1nc2c(N3CCCCC3)c(NC(=O)Nc3cnc(-n4nccn4)c(Cl)c3)cnc2s1 [Compound 40, 1-(5-Chloro-6-(2H-1,2,3-triazol-2-yl)pyridin-3-yl)-3-(2-methyl-7-(piperidin-1-yl)thiazolo[5,4-b]pyridin-6-yl)urea] | 1 to 50 nM | 1 to 100 nM
Cc1nc2c(C3CC3)c(NC(=O)Nc3cnc(OCCC4CCN(C)CC4)c(Cl)c3)cnc2s1 [Compound 73, 1-(5-Chloro-6-(2-(1-methylpiperidin-4-yl)ethoxy)pyridin-3-yl)-3-(7-cyclopropyl-2-methylthiazolo[5,4-b]pyridin-6-yl)urea] | 51 to 100 nM | 101 to 500 nM
COC(C)(C)c1c(NC(=O)Nc2ccc(-n3nccn3)c(Cl)c2)cnc2sc(C)nc12 [Compound 98, 1-(3-Chloro-4-(2H-1,2,3-triazol-2-yl)phenyl)-3-(7-(2-methoxypropan-2-yl)-2-methylthiazolo[5,4-b]pyridin-6-yl)urea] | 1 to 50 nM | 1 to 100 nM
COCC1(c2c(NC(=O)Nc3cnc(-n4nccn4)c(C(F)(F)F)c3)cnc3sc(C)nc23)CC1 [Compound 102, 1-(6-(2H-1,2,3-Triazol-2-yl)-5-(trifluoromethyl)pyridin-3-yl)-3-(7-(1-(methoxymethyl)cyclopropyl)-2-methylthiazolo[5,4-b]pyridin-6-yl)urea] | 1 to 50 nM | 1 to 100 nM
COc1ncc(NC(=O)Nc2cnc3sc(C)nc3c2N(C)C)cc1Cl [Compound 110, 1-(5-Chloro-6-methoxypyridin-3-yl)-3-(7-(dimethylamino)-2-methylthiazolo[5,4-b]pyridin-6-yl)urea] | 51 to 100 nM | 501 to 1500 nM
Cc1nc2c(C3CC3)c(NC(=O)Nc3ccc(-n4ccnn4)c(Cl)c3)cnc2s1 [Compound 169, 1-(3-Chloro-4-(1H-1,2,3-triazol-1-yl)phenyl)-3-(7-cyclopropyl-2-methylthiazolo[5,4-b]pyridin-6-yl)urea] | 1 to 50 nM | 101 to 500 nM
Cc1nc2c(C3CC3)c(NC(=O)Nc3cc(Cl)c(-n4ccnn4)c(Cl)c3)cnc2s1 [Compound 170, 1-(7-Cyclopropyl-2-methylthiazolo[5,4-b]pyridin-6-yl)-3-(3,5-dichloro-4-(1H-1,2,3-triazol-1-yl)phenyl)urea] | 1 to 50 nM | 101 to 500 nM

Reference: US20190275012A9, “SUBSTITUTED THIAZOLO-PYRIDINE COMPOUNDS AS MALT1 INHIBITORS” (Lupin Limited, priority 2016, published 2019)
